# Data: patent US20260217673A1, “NOVEL COMPOUND AS RON INHIBITOR” (LG CHEM, LTD., priority 2022, published 2026)
# Key:
# [1] = molecular target: RON (Homo sapiens, UniProt Q04912); assay: RON inhibitory activity, TR-FRET kinase assay; assay type: biochemical; details: RON protein, ULight-labeled Poly GT substrate
# How it was run: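 RON was preincubated with compound for 20-30 min at room temperature in HEPES buffer (pH 7.4) with MgCl2 and DTT. Phosphorylation of ULight-Poly GT with ATP ran 60 min before EDTA stop. Europium anti-phosphotyrosine TR-FRET (ex 340, em 620/665 nm) was read and IC50 derived from 10-point 3-fold dilutions.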
# [2] = molecular target: cMET (Homo sapiens, UniProt P08581); assay: MET (cMET) enzyme inhibitory activity, TR-FRET kinase assay; assay type: biochemical; details: cMET protein, TK peptide substrate
# How it was run: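 cMET diluted to 2 nM was preincubated 20–30 min at room temperature with compound (10-point 3-fold series from 1 mM DMSO stock). The reaction was started with TK peptide/ATP substrate mix prepared at 2× final (5 μM peptide, 10 mM ATP), run 60 min at room temperature in HEPES pH 7.4 buffer with MnCl2/MgCl2, then EDTA-stopped. Europium anti-phosphotyrosine TR-FRET (ex 340, em 620/665 nm) gave IC50.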
# Chain of cMET (P08581 25-1390): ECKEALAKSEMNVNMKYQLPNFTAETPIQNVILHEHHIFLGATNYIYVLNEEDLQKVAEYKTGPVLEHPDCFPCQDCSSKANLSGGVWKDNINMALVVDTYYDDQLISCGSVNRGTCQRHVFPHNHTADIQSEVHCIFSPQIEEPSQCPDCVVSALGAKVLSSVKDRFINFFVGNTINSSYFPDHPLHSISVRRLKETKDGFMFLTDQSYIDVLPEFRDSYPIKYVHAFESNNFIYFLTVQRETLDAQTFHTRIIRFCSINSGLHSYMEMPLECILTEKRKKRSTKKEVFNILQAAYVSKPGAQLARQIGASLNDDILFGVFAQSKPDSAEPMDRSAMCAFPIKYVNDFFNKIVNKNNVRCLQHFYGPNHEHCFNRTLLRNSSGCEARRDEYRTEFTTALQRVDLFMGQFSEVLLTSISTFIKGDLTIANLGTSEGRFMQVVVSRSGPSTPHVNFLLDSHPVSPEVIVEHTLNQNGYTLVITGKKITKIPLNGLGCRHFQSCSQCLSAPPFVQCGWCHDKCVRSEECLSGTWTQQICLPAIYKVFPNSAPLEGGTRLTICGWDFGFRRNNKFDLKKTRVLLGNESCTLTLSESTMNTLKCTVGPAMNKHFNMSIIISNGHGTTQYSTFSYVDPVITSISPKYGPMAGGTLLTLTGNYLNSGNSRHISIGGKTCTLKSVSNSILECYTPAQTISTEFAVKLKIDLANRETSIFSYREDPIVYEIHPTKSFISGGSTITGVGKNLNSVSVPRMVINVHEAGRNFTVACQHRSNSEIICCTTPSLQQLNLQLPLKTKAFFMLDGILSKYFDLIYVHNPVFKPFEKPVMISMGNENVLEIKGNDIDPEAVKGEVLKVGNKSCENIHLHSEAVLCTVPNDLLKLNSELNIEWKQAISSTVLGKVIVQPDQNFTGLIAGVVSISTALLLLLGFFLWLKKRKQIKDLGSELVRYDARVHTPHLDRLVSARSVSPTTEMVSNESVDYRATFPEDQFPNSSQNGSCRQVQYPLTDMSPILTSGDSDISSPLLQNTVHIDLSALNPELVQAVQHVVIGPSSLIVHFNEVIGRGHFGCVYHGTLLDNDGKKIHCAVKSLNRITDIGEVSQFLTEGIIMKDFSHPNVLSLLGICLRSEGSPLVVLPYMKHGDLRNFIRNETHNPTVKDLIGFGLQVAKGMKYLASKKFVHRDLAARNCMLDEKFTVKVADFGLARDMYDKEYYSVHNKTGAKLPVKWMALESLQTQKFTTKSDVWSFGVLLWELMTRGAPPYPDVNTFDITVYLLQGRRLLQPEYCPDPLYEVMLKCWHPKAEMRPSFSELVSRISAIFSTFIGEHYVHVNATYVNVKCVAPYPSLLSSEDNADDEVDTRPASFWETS
# Chain of RON (Q04912 25-1400, species assumed): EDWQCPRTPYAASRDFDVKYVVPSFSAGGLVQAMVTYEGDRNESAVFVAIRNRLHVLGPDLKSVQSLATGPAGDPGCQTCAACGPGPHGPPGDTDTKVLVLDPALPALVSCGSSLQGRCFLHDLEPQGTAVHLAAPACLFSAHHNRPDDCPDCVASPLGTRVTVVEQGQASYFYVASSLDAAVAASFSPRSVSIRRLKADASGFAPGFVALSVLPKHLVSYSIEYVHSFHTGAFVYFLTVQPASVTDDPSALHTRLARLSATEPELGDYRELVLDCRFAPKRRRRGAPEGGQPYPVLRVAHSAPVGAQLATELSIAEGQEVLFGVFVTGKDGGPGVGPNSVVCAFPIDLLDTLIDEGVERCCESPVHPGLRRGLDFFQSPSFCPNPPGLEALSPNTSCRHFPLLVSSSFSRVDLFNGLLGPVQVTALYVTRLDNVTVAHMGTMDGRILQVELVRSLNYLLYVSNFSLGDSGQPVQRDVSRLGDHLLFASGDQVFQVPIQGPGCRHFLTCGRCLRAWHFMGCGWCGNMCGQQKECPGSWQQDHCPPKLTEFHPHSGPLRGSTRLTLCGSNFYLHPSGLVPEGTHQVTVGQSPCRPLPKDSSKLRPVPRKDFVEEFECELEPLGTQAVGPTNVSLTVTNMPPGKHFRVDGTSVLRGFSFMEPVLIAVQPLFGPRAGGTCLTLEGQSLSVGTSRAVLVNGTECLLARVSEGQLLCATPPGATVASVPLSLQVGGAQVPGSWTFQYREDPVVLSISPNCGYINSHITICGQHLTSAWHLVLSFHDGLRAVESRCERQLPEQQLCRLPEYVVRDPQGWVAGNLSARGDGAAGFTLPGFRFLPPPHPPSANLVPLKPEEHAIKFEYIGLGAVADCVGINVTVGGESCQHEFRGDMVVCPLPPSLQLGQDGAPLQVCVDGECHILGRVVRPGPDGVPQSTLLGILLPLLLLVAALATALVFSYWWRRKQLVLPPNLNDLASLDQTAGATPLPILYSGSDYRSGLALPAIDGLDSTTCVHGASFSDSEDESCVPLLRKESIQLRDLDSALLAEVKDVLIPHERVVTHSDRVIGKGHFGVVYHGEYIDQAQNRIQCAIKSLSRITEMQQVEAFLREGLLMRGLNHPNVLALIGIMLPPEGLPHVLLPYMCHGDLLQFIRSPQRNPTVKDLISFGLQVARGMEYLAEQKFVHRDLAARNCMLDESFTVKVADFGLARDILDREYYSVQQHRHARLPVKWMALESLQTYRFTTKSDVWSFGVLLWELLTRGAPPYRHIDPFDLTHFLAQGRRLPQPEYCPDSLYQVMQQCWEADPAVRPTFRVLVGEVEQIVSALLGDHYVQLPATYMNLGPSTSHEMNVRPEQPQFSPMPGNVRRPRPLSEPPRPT
Structure (SMILES),IC50 [1] [nM],IC50 [2] [nM]
"CCOCC(=O)N1CCC(n2ncc(C(=O)Nc3cc(F)c(Oc4ccnc(N)c4Cl)c(F)c3)c2C(F)(F)F)CC1 [Example 60, N-(4-((2-amino-3-chloropyridin-4-yl)oxy)-3,5-difluorophenyl)-1-(1-(2-ethoxyacetyl)piperidin-4-yl)-5-(trifluoromethyl)-1H-pyrazole-4-carboxamide]",500 to 5000,500 to 5000
"COCCCn1ncc(C(=O)Nc2cc(F)c(Oc3ccnc(N)c3Cl)c(F)c2)c1C(F)(F)F [Example 61, N-[4-[(2-amino-3-chloro-4-pyridyl)oxy]-3,5-difluoro-phenyl]-1-(3-methoxypropyl)-5-(trifluoromethyl)pyrazole-4-carboxamide]",50 to 500,500 to 5000
